This passage reports TGI and GI50 results from PubChem BioAssay (NCI).

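In this assay, cells in 96-well plates receive the compound at five concentrations for 48 hours. Endpoints are linearly interpolated between the surrounding concentrations. At the GI50, growth is halved. TGI: total growth inhibition.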

Test systems include U251 CNS; UACC-62 melanoma; XF 498 CNS; HOP-62 NSCLC; KM20L2 colon; MALME-3M melanoma; SF-295 CNS; SF-268 CNS; HOP-18 NSCLC; DLD-1 colon.
Test in all cases: NCI anticancer screen, dose series, 48 h

As for `COc1ccc(C2=NNC(=O)OC2c2ccccc2)cc1` (stereo not given), the TGI with U251 CNS, in the test on UACC-62 melanoma, in the test on XF 498 CNS, in the test with HOP-62 NSCLC, with KM20L2 colon and in the test on MALME-3M melanoma was > 100 µM each time. For the same compound, the TGI in the test on SF-295 CNS, with SF-268 CNS and in the test with HOP-18 NSCLC was > 100 µM in each case.

On to `CN1C2(c3ccccc3)c3c(-c4ccccc4)sc(-c4ccccc4)c3C1(c1ccccc1)C1C(=O)N(c3ccccc3)C(=O)C12` (stereo not given), for which the TGI with U251 CNS, with UACC-62 melanoma, in the test with XF 498 CNS, in the test on HOP-62 NSCLC, in the test on KM20L2 colon and in the test on MALME-3M melanoma was > 100 µM in each case. For the same compound, the TGI with SF-295 CNS, in the test on DLD-1 colon, in the test with SF-268 CNS and with HOP-18 NSCLC was > 100 µM throughout.

With `Cc1cc(N(CCC#N)S(C)(=O)=O)ccc1C=O`, the TGI with U251 CNS, with UACC-62 melanoma, in the test on HOP-62 NSCLC, with KM20L2 colon, in the test on MALME-3M melanoma and in the test with SF-295 CNS was > 100 µM throughout. The TGI with DLD-1 colon, in the test with SF-268 CNS and with HOP-18 NSCLC was > 100 µM throughout.

For `Cn1c2c(c3ccccc31)C1CCCCC1C1C(=O)NC(=O)C21` (stereo not given), the TGI in the test with U251 CNS, with UACC-62 melanoma, in the test with XF 498 CNS, with MALME-3M melanoma, in the test with SF-295 CNS and with DLD-1 colon was > 100 µM in each case. Moreover, the TGI in the test with SF-268 CNS and in the test with HOP-18 NSCLC was > 100 µM throughout.

Consider `COc1ccc2oc3c4c2c1CCC4CCC3=O` (stereo not given), for which the TGI in the test with U251 CNS, in the test with UACC-62 melanoma, with XF 498 CNS, in the test with HOP-62 NSCLC, in the test on MALME-3M melanoma and in the test with SF-295 CNS was > 100 µM in each case. Moreover, the TGI with SF-268 CNS was > 100 µM.

For the compound `CC(C)(C)NN=C1C(C)(C)C(=NNC(C)(C)C)C1(C)C`, the TGI in the test with U251 CNS, in the test with UACC-62 melanoma, in the test with XF 498 CNS, in the test on HOP-62 NSCLC, with KM20L2 colon and with MALME-3M melanoma was > 100 µM each time. Further, the TGI in the test with SF-295 CNS, in the test on DLD-1 colon and in the test on SF-268 CNS was > 100 µM in each case.

Consider `COc1ccc(/C(Cl)=C(\C=O)c2ccc([N+](=O)[O-])cc2)cc1OC`, for which the TGI in the test on U251 CNS was 20.2 µM; with UACC-62 melanoma it was 16.2 µM; with XF 498 CNS, 9.59 µM; with HOP-62 NSCLC, > 100 µM; in the test with KM20L2 colon, 25.5 µM; with MALME-3M melanoma it was 41 µM. Further, the TGI with SF-295 CNS was 44.2 µM; in the test on SF-268 CNS, 29.4 µM; in the test on HOP-18 NSCLC it was 23.7 µM.

On to `CCOC(=O)C(=O)Nc1c(F)cc(F)cc1Br`, for which the TGI with U251 CNS, in the test with UACC-62 melanoma, with XF 498 CNS, with HOP-62 NSCLC, in the test with KM20L2 colon and with MALME-3M melanoma was > 100 µM throughout. For the same compound, the TGI in the test with SF-295 CNS, in the test with DLD-1 colon and in the test on SF-268 CNS was > 100 µM in each case.

Turning to `COc1ccc(/C=C2\CCCCC2=O)cc1`, the TGI with U251 CNS, with UACC-62 melanoma, with XF 498 CNS, with HOP-62 NSCLC, with KM20L2 colon and with SF-295 CNS was > 100 µM in each case. Further, the TGI in the test on DLD-1 colon, in the test on SF-268 CNS and with HOP-18 NSCLC was > 100 µM each time.

For `O=C(CO)CC(=O)C(=O)Nc1nc([N+](=O)[O-])cs1`, the TGI in the test on U251 CNS, in the test on UACC-62 melanoma, with HOP-62 NSCLC, in the test with KM20L2 colon, in the test with MALME-3M melanoma and with SF-295 CNS was > 100 µM in each case. In addition, the TGI in the test with DLD-1 colon, in the test with SF-268 CNS and in the test with HOP-18 NSCLC was > 100 µM throughout.

Take `CCOC(=O)N1CCc2cc(OC)c(OC)c3c2C1CC3=O` (stereo not given): the TGI in the test with U251 CNS, in the test with UACC-62 melanoma, in the test with HOP-62 NSCLC, with KM20L2 colon, in the test on MALME-3M melanoma and in the test on SF-295 CNS was > 100 µM throughout. For the same compound, the TGI in the test with DLD-1 colon, in the test on SF-268 CNS and in the test with HOP-18 NSCLC was > 100 µM in each case.

With `CC1=CC(=O)CCC2(C)C1CC[C@@H]2OC=O` (stereo not given in full), the TGI in the test on U251 CNS, in the test on UACC-62 melanoma, with XF 498 CNS, with HOP-62 NSCLC, in the test with KM20L2 colon and with SF-295 CNS was > 100 µM throughout. Also, the TGI with DLD-1 colon, with SF-268 CNS and with HOP-18 NSCLC was > 100 µM each time.

For `NC(N)=NS(=O)(=O)c1ccc(NCc2c3ccccc3nc3ccccc23)cc1`, the TGI in the test with U251 CNS was 10.9 µM; in the test on UACC-62 melanoma, 35.2 µM; with HOP-62 NSCLC, 5.92 µM; in the test on KM20L2 colon it was > 100 µM; in the test on MALME-3M melanoma, 49.7 µM; in the test with SF-295 CNS, 22 µM. For the same compound, the TGI with DLD-1 colon is > 77 µM; with SF-268 CNS, 23.1 µM; in the test with HOP-18 NSCLC, > 86.8 µM.

Take `COc1cc2c(cc1OC)-c1cc3cc(OC)c(OC)cc3n1CC2`: the TGI was > 100 µM in the test on U251 CNS; > 100 µM with UACC-62 melanoma; 59.7 µM in the test on XF 498 CNS; > 100 µM in the test with HOP-62 NSCLC; > 100 µM with KM20L2 colon; 72.6 µM in the test on MALME-3M melanoma. Further, the TGI in the test on SF-295 CNS, with DLD-1 colon and in the test on SF-268 CNS was > 100 µM in each case.

In the case of `COc1ccc(/C(=N/NC(=O)NN)C(c2ccc(OC)cc2)C2(O)CNc3c(Cl)cc(Cl)cc32)cc1` (stereo not given), the TGI in the test on U251 CNS, in the test on UACC-62 melanoma, with HOP-62 NSCLC, with KM20L2 colon, in the test on MALME-3M melanoma and in the test on SF-295 CNS was > 100 µM throughout. Moreover, the TGI in the test on DLD-1 colon, in the test on SF-268 CNS and with HOP-18 NSCLC was > 100 µM each time.

For `CCn1cc(/C=C/C(C)c2cn(CC)c(=O)[nH]c2=O)c(=O)[nH]c1=O` (stereo not given), the TGI in the test with U251 CNS, in the test on UACC-62 melanoma, in the test with HOP-62 NSCLC, in the test on KM20L2 colon, with MALME-3M melanoma and in the test on SF-295 CNS was > 100 µM throughout. For the same compound, the TGI in the test with DLD-1 colon, with SF-268 CNS and in the test with HOP-18 NSCLC was > 100 µM in each case.

Take `CCCN(CCCC(NC(C)=O)C(=O)NCc1ccccc1)C(=O)NC` (stereo not given): the TGI with U251 CNS, in the test on UACC-62 melanoma, with HOP-62 NSCLC, in the test with KM20L2 colon, in the test with MALME-3M melanoma and with SF-295 CNS was > 100 µM throughout. The TGI in the test on DLD-1 colon and with SF-268 CNS was > 100 µM each time.

On to `Cc1cc2c(=O)n(-c3ccc(F)cc3)c(C)nc2c(C(=O)O)c1C`, for which the TGI in the test on U251 CNS, in the test on UACC-62 melanoma, with HOP-62 NSCLC, with KM20L2 colon, in the test on MALME-3M melanoma and in the test with SF-295 CNS was > 100 µM throughout. Also, the TGI with DLD-1 colon, in the test on SF-268 CNS and with HOP-18 NSCLC was > 100 µM in each case.

Take `CC(=O)Nc1ccc(Sc2ccc([N+](=O)[O-])o2)cc1`: the GI50 was 3.06 µM in the test on U251 CNS; 1.83 µM with UACC-62 melanoma; 3.37 µM with HOP-62 NSCLC; 2.09 µM with MALME-3M melanoma; 10.4 µM in the test on SF-295 CNS; 3.16 µM in the test on SF-268 CNS. The TGI stood at 11 µM in the test with U251 CNS; 3.84 µM in the test on UACC-62 melanoma; 10.5 µM with HOP-62 NSCLC; 4.77 µM with MALME-3M melanoma; 23.5 µM in the test on SF-295 CNS; 11.8 µM with SF-268 CNS.

As for `NC(CSC(c1ccccc1)(c1ccccc1)c1ccc(Cl)cc1)C(=O)O` (stereo not given), the GI50 in the test with U251 CNS is 0.0978 µM; in the test with UACC-62 melanoma it was 0.18 µM; with HOP-62 NSCLC, 0.714 µM; in the test with MALME-3M melanoma it was 1.97 µM; in the test with SF-295 CNS, 0.216 µM; with SF-268 CNS, 0.399 µM. Also, the TGI in the test with U251 CNS is 18.1 µM; in the test on UACC-62 melanoma, 21.6 µM; with HOP-62 NSCLC it was 20.5 µM; in the test on MALME-3M melanoma, 39.6 µM; with SF-295 CNS it was 3.57 µM; in the test on SF-268 CNS, 26.5 µM.

In the case of `COc1ccccc1-n1c(-c2cc(O)ccc2C)cn2c3c(=O)[nH]c(=O)n(C)c3nc12`, the GI50 is 22.2 µM in the test on U251 CNS; > 100 µM in the test with UACC-62 melanoma; 7.74 µM in the test with HOP-62 NSCLC; > 100 µM with MALME-3M melanoma; 5.34 µM in the test on SF-295 CNS; 5.07 µM in the test on SF-268 CNS. The TGI with U251 CNS, with UACC-62 melanoma, in the test with HOP-62 NSCLC, in the test on MALME-3M melanoma, in the test with SF-295 CNS and in the test with SF-268 CNS was > 100 µM in each case.
